“Also recorded” adds a separate entry of the source.
What was measured:
[1] = test system: experienced and trained panelist; test: Sensorial comparison of energy shot prototypes at various malic acid and sucralose levels with and without bioPDO (Example 5); assay type: in vivo, human; details: 0.2% bioPDO; sucralose and malic acid lowered by 32% and 47%
Method: (§1) • 1. Take 1st sip from a full 30 mL medicine cup, taste and swallow the 1st sample, wait 10 seconds, then take a 2nd sip and lock it into memory. Wait for 10 seconds. • 2. Proceed with 2nd sample. Taste 1st sip of the 2nd sample, wait for 10 seconds, and then use the 2nd sip to compare to the 2nd sip (or 3rd sip) of the 1st sample.
Each paired sample evaluation was repeated in triplicate with at least a 10-minute break and a carbon-treated water rinse.
The theory is to try to establish a reduced amount (concentration) of malic acid to match its sourness intensity of our energy shot prototype w/bioPDO to the control, energy shot prototype without bioPDO. Secondly, if this adjustment of lowering the malic acid concentration results in increasing sweetness, an additional step will be performed to reduce the amount of sucralose until both sourness and sweetness taste match that of the control w/o bioPDO. Below are the comparative sensorial evaluation results in Tables 33-36 including their specific sample formulations, observations, and results. Keywords of SUL, MA and CAF are sucralose, malic acid, and caffeine, respectively.

[2] = Comparison of energy shot prototypes with and without caffeine and bioPDO (Example 7); assay type: in vivo, human; details: samples without caffeine
Method: as §1, with “2nd sip of the” for “2nd sip (or 3rd sip) of the”, “1st sample. • 3. Rinse with DW and wait for approximately 15 seconds. Repeat step 2 for each if extra sampling needed, not to exceed four samples at a time.” for “1st sample.”
Each paired sample evaluation was repeated in duplicate with at least a 10-minute break and a carbon-treated water rinse.
The following samples were prepared for this study: • 1. Existing Sample #3A (Energy shot prototype) without bioPDO. • 2. Existing Sample #3B (Energy shot prototype) with bioPDO. • 3. New Sample #4A with similar levels of sucralose and malic acid as Sample #3A, BUT without bioPDO and caffeine as an experimental sample. • 4. New Sample #4B with similar levels of sucralose, malic acid and bioPDO as Sample #3B, BUT without caffeine as an experimental sample. Results
This study was designed so it would be possible to directly identify any other ‘off-taste’ attribute. […] Below are the comparative sensorial evaluation results in Table 42 including their specific sample formulations, observations and results. Keywords of SUL, MA and CAF are sucralose, malic acid and caffeine, respectively.

[3] = test system: experienced and trained panelist; test: Sensorial description of energy drinks and additive solutions with propylene glycol or biologically-produced 1,3-propanediol (multi-sip-and-swallow taste method); details: for Sensorial Description: RT; for increase of sweetness equivalent: with prior DW sipping; for concentration yielding the most consistent reduction in unpleasant taste/masking off-tastes: in vivo; for taste quality of 5-hour ENERGY shots and Bang energy drink: included in 5-hour ENERGY shots and Bang energy drink; for overall tasting quality vs propylene glycol: three additive solutions; for tasting qualities vs propylene glycol: two additive malic acid and sucralose solutions;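 on all read-outs here: propylene glycol or 1,3-propanediol added at 0.01, 0.1 or 1.0%, tasted by multi-sip-and-swallow in duplicate, compared with matching controls lacking either additive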
[4] = Taste of juices and yogurts with 1,3-propanediol; assay type: in vivo
[5] = PG samples tasted before PDO samples

## OCCCO [PDO, 1,3-propanediol]
[1]
  taste quality effect of 0.2% addition: failed to further improve
[2]
  modulation of sweet and sour intensities: does not positively or negatively modulate the sweet and sour intensities
[3]; 0.01% PG or PDO in 79 ppm sucralose (5% SE) in distilled water
  Sensorial Description: Same as 0.01% PG results.
[3]; 0.01% PG or PDO in 2,000 ppm sucralose in distilled water
  Sensorial Description: (small sip): Similar results as 0.01% PG. Direct
[3]; 0.01% PG or PDO in 3,338 ppm caffeine in distilled water (caffeine shot)
  Sensorial Description: (small sip): similar to Control #65.
[3]; 0.01% PG or PDO in 10,500 ppm malic acid and 2,000 ppm sucralose in distilled water
  Sensorial Description: Little to no sweetness and sourness, similar
[3]; 0.01% PG or PDO in 10,500 ppm malic acid, 2,000 ppm sucralose, 3,338 ppm caffeine in distilled water
  Sensorial Description: Significantly less sweet intensity, less and different
[3]; 0.01% PG or PDO in B vitamins at 5-hour Energy shot concentrations in distilled water
  Sensorial Description: Slightly different from Control (upfront smooth-like)
[3]; 0.01% PG or PDO in Bang energy drink
  Sensorial Description: Still slow onset sourness, less sweetness (more
[3]; 0.01% PG or PDO in Berry flavor in distilled water
  Sensorial Description: No dry taste effect, slight less flavor.
[3]; 0.01% PG or PDO in Monster Energy Zero Ultra
  Sensorial Description: Significantly less off-taste, still strong sweetness and
[3]; 0.01% PG or PDO in Monster Energy drink
  Sensorial Description: Note: Loss of carbonation. No carbonic acid off-
[3]; 0.01% PG or PDO in NOS High Performance Energy Drink
  Sensorial Description: Less Sweet, smoother, no off-taste, significant less
[3]; 0.01% PG or PDO in Orange 5-hour ENERGY shot (5HE Orange)
  Sensorial Description: Not significantly less flavor, tasted better than
[3]; 0.01% PG or PDO in Red Bull Energy Drink
  Sensorial Description: Better taste overall and less off taste than 0.01% PG,
[3]; 0.01% PG or PDO in Red Bull Sugar Free
  Sensorial Description: Much better overall tasting quality, significantly less
[3]; 0.01% PG or PDO in Rockstar Original energy drink
  Sensorial Description: Slight off-flavor, significantly less sourness, still
[3]; 0.01% in 2,000 ppm sucralose
  increase of sweetness equivalent: ~45% more SE.
[3]; 0.1% PG or PDO in 238 ppm sucralose (10% SE) in distilled water
  Sensorial Description: Still slightly more sweetness, thinner but still ~9-
[3]; 0.1% PG or PDO in 338 ppm caffeine in distilled water (caffeine drink)
  Sensorial Description: Stronger bitterness intensity to medium level.
[3]; 0.1% PG or PDO in 2,000 ppm sucralose in distilled water
  Sensorial Description: (small sip): Significantly improved sugar-like tasting
[3]; 0.1% PG or PDO in 3,338 ppm caffeine in distilled water (caffeine shot)
  Sensorial Description: (small sip): similar to Control #65.
[3]; 0.1% PG or PDO in Bang energy drink
  Sensorial Description: Significantly less sourness and sweetness, smoother,
[3]; 0.1% PG or PDO in Berry 5-hour ENERGY shot (5HE Berry)
  Sensorial Description: Significantly better tasting quality than 0.1% PG,
[3]; 0.1% PG or PDO in Berry flavor in distilled water
  Sensorial Description: Less dry than 0.01% PDO, slight less flavor.
[3]; 0.1% PG or PDO in Monster Energy Zero Ultra
  Sensorial Description: More suitable tasting quality (less than 1% but more
[3]; 0.1% PG or PDO in Monster Energy drink
  Sensorial Description: Note: Loss of carbonation. Similar to 0.01% PDO,
[3]; 0.1% PG or PDO in Red Bull Energy Drink
  Sensorial Description: Note: Significant loss of carbonation. Still slight-
[3]; 0.1% PG or PDO in Red Bull Sugar Free
  Sensorial Description: Flatter than 0.01% PDO, low-med flavor, low-med
[3]; 0.1% in 2,000 ppm sucralose
  increase of sweetness equivalent: ~45% more SE.
[3]; 1% / 1.0% (10,000 ppm) in the compositions studied, listed as biologically-produced 1,3-propanediol
  taste effect at 1% (10,000 ppm): sometimes imparted a smoke and/or off-flavor; also recorded: yielded no further improvement in taste perception
[3]; 1.0% PG or PDO in 79 ppm sucralose (5% SE) in distilled water
  Sensorial Description: Significant off-flavor note, chemical-like note,
[3]; 1.0% PG or PDO in 238 ppm sucralose (10% SE) in distilled water
  Sensorial Description: Off-flavor, thinner-like or chemical-like note,
[3]; 1.0% PG or PDO in 338 ppm caffeine in distilled water (caffeine drink)
  Sensorial Description: Off-flavor taste, delayed onset of bitterness.
[3]; 1.0% PG or PDO in 2,000 ppm sucralose in distilled water
  Sensorial Description: (small sip): off-flavor chemical-like note (plastic-
[3]; 1.0% PG or PDO in 3,338 ppm caffeine in distilled water (caffeine shot)
  Sensorial Description: (small sip): similar to Control #65, slightly
[3]; 1.0% PG or PDO in 10,500 ppm malic acid and 2,000 ppm sucralose in distilled water
  Sensorial Description: Weak off-flavor across the taste, similar qualities
[3]; 1.0% PG or PDO in 10,500 ppm malic acid in distilled water
  Sensorial Description: No off-flavor for sure, however possible Invisible-
[3]; 1.0% PG or PDO in 10,500 ppm malic acid in distilled water, listed as biologically-produced 1,3-propanediol
  Sensorial Description: did not present any expected off-flavor
[3]; 1.0% PG or PDO in 10,500 ppm malic acid, 2,000 ppm sucralose, 3,338 ppm caffeine in distilled water
  Sensorial Description: Very weak off-flavor note, thinner sourness, less
[3]; 1.0% PG or PDO in B vitamins at 5-hour Energy shot concentrations in distilled water
  Sensorial Description: Slight-medium off-flavor note,
[3]; 1.0% PG or PDO in Bang energy drink
  Sensorial Description: Slight and low off-flavor at middle tasting time,
[3]; 1.0% PG or PDO in Berry flavor in distilled water
  Sensorial Description: Moderate chemical-like off-flavor at later
[3]; 1.0% PG or PDO in Monster Energy Zero Ultra
  Sensorial Description: Smoother, medium off flavor at middle tasting
[3]; 1.0% PG or PDO in Monster Energy drink
  Sensorial Description: Note: Little carbonation. Significant undescribed
[3]; 1.0% PG or PDO in NOS High Performance Energy Drink
  Sensorial Description: Off-flavor in middle taste, no or low sourness, not
[3]; 1.0% PG or PDO in Orange 5-hour ENERGY shot (5HE Orange)
  Sensorial Description: Slight or faint off-flavor in background (non-
[3]; 1.0% PG or PDO in Red Bull Energy Drink
  Sensorial Description: Note: significantly less or no carbonation. Significant
[3]; 2,000 ppm, 238 ppm, or 70 ppm sucralose in distilled water
  reduction in unpleasant taste or masking of off-taste: No reduction in unpleasant taste, or masking of off-taste
[3]; 3,382 ppm or 338 ppm caffeine in distilled water
  reduction of unpleasant taste / masking of bitterness: did not reduce the unpleasant taste, or mask the bitterness
[3]; across a broad range of food, beverage, and confection compositions
  maximum useful concentration: 0.5%
[3]; aqueous B vitamins at concentrations comparable to 5-hour ENERGY shots
  taste modulation of B vitamins: did not positively modulate
[3]; berry flavor in distilled water
  modulation of berry flavor: Neither biologically-produced 1,3-propanediol, nor propylene glycol modulated the flavor
[3]; listed as bioPDO
  concentration yielding the most consistent reduction in unpleasant taste/masking off-tastes: ca. 0.1%
[3]; listed as biologically-produced 1,3-propane diol
  concentration yielding the most consistent reduction in unpleasant taste/masking off-tastes: about 0.1%
[3]; listed as Biologically-produced 1,3-propanediol
  taste quality of 5-hour ENERGY shots and Bang energy drink: improved the taste quality
[3]; listed as biologically-produced 1,3-propanediol
  taste quality of 5-hour ENERGY shots and Bang energy drink: positive taste modulation effect of PDO
[3]; malic acid at 10,500 ppm in distilled water
  taste modulation or sour masking: no positive taste modulation or sour masking effect
[3]; malic acid, sucralose and caffeine at 5-hour ENERGY concentrations in distilled water, compared to solution with propylene glycol
  taste modulation of three additive solution: positive taste modulation, or a reduction of unpleasant tastes
[3]; separate caffeine, malic acid, and sucralose solutions at mega-dose levels, listed as biologically-produced 1,3-propanediol
  taste modulation of single additive solutions: did not positively modulate the taste or mask the bitter, off, or sour tastes; also recorded: neither propylene glycol, nor biologically-produced 1,3-propanediol modulated the taste
[3]; solutions containing a blend of two taste additives
  taste modulation of two additive solutions: most positive taste modulation effect
[3]; PDO samples tasted before PG samples, similar levels
  overall tasting quality vs propylene glycol: better overall tasting quality
[3]; [5]
  overall tasting quality vs propylene glycol: no tasting quality differences
  tasting qualities vs propylene glycol: tasted marginally better than the propylene glycol-containing samples
[3]; direct comparison of PDO to PG
  tasting qualities vs propylene glycol: better tasting qualities than those with propylene glycol
[4]; Greek yogurt, with vs without
  taste modulation: less bitter and sweeter
[4]; Vanilla yogurt, with vs without
  taste modulation: less bitter and somewhat sweeter
[4]; cranberry juice
  taste modulation: reduced both the bitterness and the sweetness
[4]; grapefruit juice
  taste modulation: decrease the bitterness and increase the sweetness
[4]; orange juice, with vs without
  taste modulation: less bitter and somewhat sweeter
